The values that follow come from ChEMBL document CHEMBL1149743, “Linear diterpenes from the Caribbean sponge Myrmekioderma styx” (J Nat Prod, 1992).

≈ marks a conversion by molar mass, not a printed value.

Series [1] in a line: (§1) Toxicity against Artemia salina after 24 hrs. It counts as organism-based. The following applies: in vivo.
Series [2] has as its system Artemia salina. Described as §1. It counts as organism-based. The following applies: in vivo, 24 h.

In the case of `C=CC(C)(O)/C=C/C=C(\C)CC/C=C(\C)CC(=O)C=C(C)C` (centres undefined) [STYXENOL A], the 50% lethal concentration (LC50) (usually the concentration that kills 50% of the test population) at 24 h in series [1] came out at 154 µg/mL (≈ 509 µM). Take `C=CC(C)(O)/C=C/C=C(\C)CCC/C(C)=C\C(=O)C=C(C)C` (centres undefined): the LC50 at 24 h in series [1] turned out to be 163 µg/mL (≈ 539 µM). With `C=CC(C)(O)/C=C/C=C(\C)CC/C=C(\C)CCC=C(C)C` (centres undefined), in series [2], the Activity entry was “Toxic”. `C=CC(C)(O)/C=C/C=C(\C)CC/C=C(\C)CC(=O)CC(C)C` (centres undefined) displayed a median lethal concentration (LC50) at 24 h in series [1] of 3 µg/mL (≈ 9.85 µM).
